Results as given in patent US7138246B2, “Methods for identifying or screening for agents that modulate 17β-HSD3” (Bristol-Myers Squibb Company, priority 2004, dated 2006).

How the values were obtained:
17β-HSD3 [1] = target: T1, 17β-HSD3 (Homo sapiens, UniProt P37058); assay: 17β-HSD3 SEAP assay (PSA reporter) in MDA MB 453/17β-HSD3 cells; assay type: cell-based; set-up: expressed in transfected cells; conditions: MDA-MB453-17β-HSD3 cells, PSA-SEAP reporter, read-out: IC50, 17β-HSD3 cell based activity
T1 sequence (P37058 1-310): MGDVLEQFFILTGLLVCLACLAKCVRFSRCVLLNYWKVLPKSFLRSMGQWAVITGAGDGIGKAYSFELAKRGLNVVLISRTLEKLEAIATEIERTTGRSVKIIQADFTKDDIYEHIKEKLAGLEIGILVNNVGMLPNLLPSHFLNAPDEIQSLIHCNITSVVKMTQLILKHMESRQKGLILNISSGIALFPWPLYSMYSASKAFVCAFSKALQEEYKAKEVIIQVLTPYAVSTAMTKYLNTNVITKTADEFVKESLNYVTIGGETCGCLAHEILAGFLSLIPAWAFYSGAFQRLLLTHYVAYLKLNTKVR
Procedure: Cultured MDA MB 453/17β-HSD3 cells were trypsinized, spun at 1000 rpm for 10 minutes, and resuspended in DMEM/10% cFBS supplemented with 5 mM BES at a concentration of 4×10^7 cells per mL. The cells (aliquots of 1×10^7 cells) were then transiently transfected with 3 μg of the PSA-SEAP construct by electroporation at 0.22 kVolts and 960 μFD with a time constant of […]. After a short recovery period, the cells were spun down and resuspended in DMEM/10% cFBS and plated into 96-well tissue culture plates (5×10^5 cells per well in 50 μL). After overnight adherence, the compounds were diluted in DMEM/10% and cFBS was added to the cells. 24 hours later, the medium was removed, fresh media containing the compounds was added in the presence of 10 nM Androstenedione, and this mixture was allowed to incubate for 24 hours. 25 μL of the culture supernatant was then removed and plated into 96-well black Optiplates (Perkin Elmer) for SEAP measurement as described by the reagent manufacturer (Tropix). Briefly, the supernatant was heat inactivated at 65° C. for 30 minutes and then allowed to cool to room temperature. Assay buffer (25 μL, Tropix) was then added and allowed to mix for 5 minutes followed by the addition of the Reaction buffer (25 μL, Tropix) and the plates were then incubated for 20 minutes in the dark. Plates were then read using a Packard Instruments TopCount with luminescent detection and signal was captured for 10 seconds per well and photon emission (cps) was averaged. A standard MTS assay (Promega) as described by the manufacturer, was performed in parallel to normalize the data based on cell numbers. Data analysis including percent inhibition and IC50 determination, based on 10 point serially diluted curves in duplicate, was then performed using Microsoft Excel and XLFit.
The analysis of 17β-HSD3 steroid conversion by TLC is hampered by the limitation to examine large numbers of compounds. […] To test this system, a prostate specific antigen (PSA) reporter plasmid was transfected into MDA-MB453 cells stably expressing 17β-HSD3 and stimulated with different concentrations of androstenedione (FIG. 5B).
To evaluate the suitability of this cellular assay for monitoring 17β-HSD3 cell based activity, the inhibitory effects of 18β-glycyrrhetinic acid and […] were examined.

17β-HSD3 [2] = target: T1, 17β-HSD3; assay: 17β-HSD3 scintillation proximity assay (SPA); assay type: biochemical; set-up: made in house; CHAPS-solubilised 100,000 x g supernatant; conditions: for 17β-HSD3 inhibitory activity in the SPA: FIG. 3B
Procedure: HEK293/17β-HSD3 cells were harvested by scraping or treatment with Cell Dissociation Buffer (Invitrogen) and collected in ice cold Phosphate Buffered Saline (PBS) containing a protease inhibitor cocktail (Complete Tabs, Roche Diagnostics). The cells were then pelleted by centrifugation at 1000 rpm and washed once more in the same buffer. The cells were then resuspended in 2× the cell pellet volume with ice cold lysis buffer (40 mM Tris-HCl pH7.5, 2 mM DTT, 1 mM EDTA, 10% Glycerol (v/v), 0.5% CHAPS (w/v), 1M 1-(3-sulfopropyl)pyridinium hydroxide, Complete Tab(s)) and dounce homogenized on ice. The crude lysate was then incubated on ice for 60 minutes to allow for membrane protein solubilization, followed by centrifugation at 100,000×g for 60 minutes at 4° C. The supernatant was then removed and dialyzed overnight at 4° C. against the enzyme storage buffer (40 mM Tris-HCl pH 7.5, 40 mM KCl, 2 mM DTT, 1 mM EDTA, 20% Glycerol (v/v), Complete Tab(s)). Protein concentration was determined by the Bradford assay, the enzyme was aliquotted, and stored at −80° C. Activity was assessed using the SPA described below.
SPA beads conjugated to anti-mouse IgG were incubated overnight in SPA Bead Buffer (50 mM Tris pH 8.0, 10% Glycerol (v/v)), with anti-Testosterone monoclonal antibody (2 μg antibody per 1 mg of SPA beads) under gentle rotation. The antibody saturated bead complex was then spun down at 500 rpm for 10 minutes at 4° C. and the beads were resuspended in SPA Bead Buffer at a final concentration of 0.5 mg/160 μL. The anti-T/SPA Beads were then stored at 4° C. until needed. Enzymatic assays were conducted in 30 μL total reaction volumes in 96-well white Optiplates (Perkin Elmer). The reaction buffer consisted of 50 mM MES pH 6.0, 2 mM DTT, 0.1% CHAPS, 3 mM NADPH, 10% Glycerol (v/v), 850 nM 4-Androstene-3,17-Dione, and 50 nM [3H]4-Androstene-3,17-Dione (Specific Activity 70–110Ci/mmol). Compounds were diluted such that the final concentration of ethanol and DMSO would not exceed 3% (v/v) and 1% (v/v) respectively, corresponding to concentrations that had little or no effect on enzymatic activity (data not shown). Previously prepared and frozen 17β-HSD3 enzyme was diluted into ice cold buffer containing 50 mM Mes, 40 mM KCl, 2 mM DTT, 1 mM EDTA, and 10% glycerol (v/v) and added last to the reaction mixture. The reaction was allowed to proceed for 60 minutes at room temperature and was stopped by the addition of 10 μL of 0.1N HCl. After the reactions were stopped, an excess of the anti-T/SPA Beads (0.5 mg) were added to each well to a final volume of 200 μL. The plates were sealed and shaken at ˜200 rpm on an orbital shaker at room temp for at least 90 minutes or overnight at 4° C. After allowing the beads to settle, the amount of [3H]Testosterone produced in each well was determined by scintillation counting on a Perkin Elmer TopCount instrument and collected as DPMs. The data was then analyzed and percent inhibition and/or IC50 values, based on 10 point serially diluted curves in duplicate or triplicate, were calculated using Microsoft Excel and XLFit programs. […] Input samples and unbound supernatants, from the enzymatic reactions, were quantitated by scintillation counting to aid in the calculation of bound versus free testosterone produced. Km values were calculated using the Lineweaver-Burke formula and plots where 1/v=(Km+[s])/(Vmax [s]). […]

Row | SMILES | IC50 (17β-HSD3 [1]) [nM] | IC50 (17β-HSD3 [2]; read-out: IC50, 17β-HSD3 biochemical activity) [nM] | IC50 (17β-HSD3 [1]; FIG. 5C) [nM] | 17β-HSD3 inhibitory activity in the SPA (17β-HSD3 [2])
1 | COc1ccccc1CCNC(=O)c1cc(Oc2ccccc2)ccc1NC(=O)c1ccc(O)c(Cl)c1 [2-[(3-chloro-4-hydroxybenzoyl)amino]-N-[2-(2-methoxyphenyl)ethyl]-5-phenoxybenzamide] | 300 | 60 | – | –
2 | C[C@]12C=CC(=O)C=C1C(=O)C[C@@H]1[C@@H]2CC[C@]2(C)C(=O)CC[C@@H]12 [1,4-androstadiene-1,6,17-trione] | – | – | 1600 | potent inhibitory activity
3 | CC1(C)[C@@H](O)CC[C@]2(C)[C@H]3C(=O)C=C4[C@@H]5C[C@@](C)(C(=O)O)CC[C@]5(C)CC[C@@]4(C)[C@]3(C)CC[C@@H]12 [18β-glycyrrhetinic acid] | – | – | 3800 | potent inhibitory activity
